Measured values: US20250352596A1, “DIETARY SUPPLEMENTS FOR MOOD SUPPORT” (Melaleuca, Inc., priority 2024, published 2025)
One block for each compound: values may come before it.

What was measured:
Type in all cases: biochemical
GSK3β = GSK3β (Homo sapiens, UniProt P49841); test: kinase inhibition, IC50 of Blend A, ingredients and control; conditions: follow up investigation; for inositol the upper limit of use (1 mM) was used in the calculation
GSK3α = GSK3α (Homo sapiens, UniProt P49840); test: as above; conditions: follow up investigation; for inositol the upper limit of use (1 mM) was used in the calculation
GRK2 = biological target: T1, GRK2 (Homo sapiens, UniProt P25098); test: as above
T1 sequence (P25098 1-689): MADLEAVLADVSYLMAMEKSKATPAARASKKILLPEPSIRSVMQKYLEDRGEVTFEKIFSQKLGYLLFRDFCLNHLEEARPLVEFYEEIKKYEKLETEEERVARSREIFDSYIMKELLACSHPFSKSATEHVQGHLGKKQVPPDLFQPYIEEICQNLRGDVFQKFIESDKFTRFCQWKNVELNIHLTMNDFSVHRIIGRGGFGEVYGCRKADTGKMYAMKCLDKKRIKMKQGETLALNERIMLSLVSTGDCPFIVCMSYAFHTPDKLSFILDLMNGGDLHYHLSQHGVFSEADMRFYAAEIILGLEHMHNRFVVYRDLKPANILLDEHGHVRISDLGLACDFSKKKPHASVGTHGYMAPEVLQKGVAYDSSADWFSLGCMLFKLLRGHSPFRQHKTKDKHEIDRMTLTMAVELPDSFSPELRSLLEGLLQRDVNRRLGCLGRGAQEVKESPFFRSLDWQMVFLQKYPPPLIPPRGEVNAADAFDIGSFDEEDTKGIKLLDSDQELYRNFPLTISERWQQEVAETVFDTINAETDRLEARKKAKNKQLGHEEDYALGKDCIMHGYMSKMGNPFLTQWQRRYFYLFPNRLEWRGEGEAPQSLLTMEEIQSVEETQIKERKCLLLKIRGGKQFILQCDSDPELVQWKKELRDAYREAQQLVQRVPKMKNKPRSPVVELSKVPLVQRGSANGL

ERK1 = ERK1 (Homo sapiens, UniProt P27361); test: kinase inhibition screen, IC50 of Blend A vs control compound; conditions: initial investigation, Table 17; Blend A head reads IC50* (asterisk unexplained)
Description: The cellular mechanism of action of known pharmaceutical compounds targeting mental health require the inhibition of individual enzymes. For example, one of the most well-known pharmaceuticals utilized in the mental health space, lithium, can trace its efficacy in part to the inhibition of an enzyme called glycogen synthase kinase 3 (GSK3). A technique similar to one used in the pharmaceutical industry was used to determine study a mood support composition. See, e.g., Duong-Ly, K. C. & Peterson, J. R. Curr. Protoc. Pharmacol. Chapter 2, Unit2.9 (2013); Ma, H. et al. Expert Opin. Drug Discov.
Within the body, protein kinases are responsible for carrying out cellular and intracellular actions, such as cell-to-cell signaling, neurotransmitter regulation, and hormone release. Several protein kinases are known to influence mood, and many are targets of therapeutic drugs. As a natural alternative to pharmaceuticals, Blend A was screened for efficacy of inhibiting 18 common, mood-related drug targets, including 17 kinases and 1 enzyme.

Chain of GSK3α (P49840 whole entry, species assumed): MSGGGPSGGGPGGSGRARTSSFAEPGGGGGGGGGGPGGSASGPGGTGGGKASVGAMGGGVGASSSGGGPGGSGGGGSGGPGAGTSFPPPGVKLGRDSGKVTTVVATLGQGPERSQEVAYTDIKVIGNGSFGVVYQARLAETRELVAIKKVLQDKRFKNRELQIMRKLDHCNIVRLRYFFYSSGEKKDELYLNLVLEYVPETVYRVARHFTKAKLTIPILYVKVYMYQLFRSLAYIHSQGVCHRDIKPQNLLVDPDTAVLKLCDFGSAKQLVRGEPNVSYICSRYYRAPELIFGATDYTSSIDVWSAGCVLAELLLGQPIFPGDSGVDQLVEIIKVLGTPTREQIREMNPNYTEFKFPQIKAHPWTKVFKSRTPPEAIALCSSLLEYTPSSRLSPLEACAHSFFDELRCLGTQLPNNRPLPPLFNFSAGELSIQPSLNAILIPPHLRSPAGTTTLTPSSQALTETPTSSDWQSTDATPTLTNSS
Chain of ERK1 (P27361 whole entry, species assumed): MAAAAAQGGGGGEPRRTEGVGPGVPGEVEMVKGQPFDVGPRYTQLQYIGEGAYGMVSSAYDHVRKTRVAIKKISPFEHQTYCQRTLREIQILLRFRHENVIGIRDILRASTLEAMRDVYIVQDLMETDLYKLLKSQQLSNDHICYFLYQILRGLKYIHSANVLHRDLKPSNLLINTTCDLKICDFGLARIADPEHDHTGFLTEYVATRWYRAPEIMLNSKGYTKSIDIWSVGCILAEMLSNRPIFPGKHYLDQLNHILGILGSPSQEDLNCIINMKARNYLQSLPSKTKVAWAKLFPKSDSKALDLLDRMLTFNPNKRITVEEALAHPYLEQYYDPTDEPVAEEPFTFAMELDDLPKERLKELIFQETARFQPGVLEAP
Chain of GSK3β (P49841 whole entry, species assumed): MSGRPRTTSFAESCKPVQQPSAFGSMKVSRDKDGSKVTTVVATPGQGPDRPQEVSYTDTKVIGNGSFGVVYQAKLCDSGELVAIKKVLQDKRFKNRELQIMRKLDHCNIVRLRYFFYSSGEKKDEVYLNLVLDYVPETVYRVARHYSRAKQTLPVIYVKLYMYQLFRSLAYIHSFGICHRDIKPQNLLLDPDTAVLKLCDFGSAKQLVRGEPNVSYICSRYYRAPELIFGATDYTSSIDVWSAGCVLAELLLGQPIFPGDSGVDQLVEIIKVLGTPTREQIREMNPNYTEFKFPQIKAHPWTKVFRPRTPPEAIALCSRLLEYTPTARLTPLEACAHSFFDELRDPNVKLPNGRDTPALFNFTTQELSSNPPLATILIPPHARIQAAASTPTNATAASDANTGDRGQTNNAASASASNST

efficacy for inhibiting the target, in words (GSK3β): did not demonstrate efficacy
efficacy for inhibiting the target, in words (GSK3α): did not demonstrate efficacy
efficacy for inhibiting the target, in words (GRK2; follow up investigation, for inositol the upper limit of use (1 mM) was used in the calculation): did not demonstrate efficacy
SMILES: O[C@H]1[C@H](O)[C@@H](O)[C@H](O)[C@@H](O)[C@H]1O [Inositol, inositol]

IC50 (ERK1): 5.57 nM
SMILES: O=C(Nc1ccc2[nH]nc(-c3ccncc3)c2c1)[C@@H]1CCN(CC(=O)N2CCN(c3ccc(-c4ncccn4)cc3)CC2)C1 [SCH772984]

SMILES: CN[C@@H]1C[C@H]2O[C@@](C)([C@@H]1OC)n1c3ccccc3c3c4c(c5c6ccccc6n2c5c31)C(=O)NC4 [STAUROSPORINE, staurosporine, reference compound]
Reciprocal Sum (GRK2; Table 19, sum of the two analyses, each 50% weight): 1.60E+06
